Biological target: T1, LBP (leucine-binding protein) (Escherichia coli, UniProt P04816)
T1 sequence (P04816 24-369): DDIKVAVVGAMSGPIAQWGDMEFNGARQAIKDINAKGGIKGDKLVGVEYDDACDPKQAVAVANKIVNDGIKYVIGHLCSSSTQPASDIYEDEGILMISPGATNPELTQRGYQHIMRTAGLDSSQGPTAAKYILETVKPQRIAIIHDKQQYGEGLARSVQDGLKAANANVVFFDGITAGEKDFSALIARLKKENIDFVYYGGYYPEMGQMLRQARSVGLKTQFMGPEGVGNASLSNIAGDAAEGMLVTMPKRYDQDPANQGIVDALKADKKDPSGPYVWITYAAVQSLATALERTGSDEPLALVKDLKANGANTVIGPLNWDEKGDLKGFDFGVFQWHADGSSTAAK

CC(C)C[C@H](N)C(=O)O [leucine]
Kd: 86 ± 19 nM

From paper PMC7045694 (ACS Nano, 2020)
